Experimental data: article PMC10838953

Key:
[1] = tested on: RPTEC (renal proximal tubule epithelial cells); assay: cells; settings: Homo sapiens, read-out: IC50 cell viability
[2] = target: ABL1(M351T)-phosphorylated (Homo sapiens, UniProt P00519, M351T); assay: biochemical; settings: read-out: %Ctrl @ 2000nM
AKT2 = AKT2 (Homo sapiens, UniProt P31751); assay: biochemical; settings: read-out: %Ctrl @ 2000nM
AMPK-alpha1 = AMPK-alpha1 (Homo sapiens, UniProt Q13131); assay: biochemical; settings: read-out: %Ctrl @ 2000nM
AURKC = AURKC (Homo sapiens, UniProt Q9UQB9); assay: biochemical; settings: read-out: %Ctrl @ 2000nM
BLK = BLK (Homo sapiens, UniProt P51451); assay: biochemical; settings: read-out: %Ctrl @ 2000nM
CDK11 = CDK11 (Homo sapiens, UniProt Q9BWU1); assay: biochemical; settings: read-out: %Ctrl @ 2000nM
CDK4-cyclinD3 = CDK4-cyclinD3 (Homo sapiens, UniProt P11802); assay: biochemical; settings: read-out: %Ctrl @ 2000nM
CDK5 = CDK5 (Homo sapiens, UniProt Q00535); assay: biochemical; settings: read-out: %Ctrl @ 2000nM
CSNK1G3 = CSNK1G3 (Homo sapiens, UniProt Q9Y6M4); assay: biochemical; settings: read-out: %Ctrl @ 2000nM
DAPK1 = DAPK1 (Homo sapiens, UniProt P53355); assay: biochemical; settings: read-out: %Ctrl @ 2000nM
DDR1 = DDR1 (Homo sapiens, UniProt Q08345); assay: biochemical; settings: read-out: %Ctrl @ 2000nM
EPHA3 = EPHA3 (Homo sapiens, UniProt P29320); assay: biochemical; settings: read-out: %Ctrl @ 2000nM
ERK2 = ERK2 (Homo sapiens, UniProt P28482); assay: biochemical; settings: read-out: %Ctrl @ 2000nM
ERK5 = ERK5 (Homo sapiens, UniProt Q13164); assay: biochemical; settings: read-out: %Ctrl @ 2000nM
FER = FER (Homo sapiens, UniProt P16591); assay: biochemical; settings: read-out: %Ctrl @ 2000nM
FGFR3(G697C) = FGFR3(G697C) (Homo sapiens, UniProt P22607, G697C); assay: biochemical; settings: read-out: %Ctrl @ 2000nM
[3] = target: JAK3(JH1domain-catalytic) (Homo sapiens, UniProt P52333); assay: biochemical; settings: read-out: %Ctrl @ 2000nM
KIT(L576P) = KIT(L576P) (Homo sapiens, UniProt P10721, L576P); assay: biochemical; settings: read-out: %Ctrl @ 2000nM
MAP3K3 = MAP3K3 (Homo sapiens, UniProt Q99759); assay: biochemical; settings: read-out: %Ctrl @ 2000nM
MAP4K3 = MAP4K3 (Homo sapiens, UniProt Q8IVH8); assay: biochemical; settings: read-out: %Ctrl @ 2000nM
MAP4K5 = MAP4K5 (Homo sapiens, UniProt Q9Y4K4); assay: biochemical; settings: read-out: %Ctrl @ 2000nM
MARK1 = MARK1 (Homo sapiens, UniProt Q9P0L2); assay: biochemical; settings: read-out: %Ctrl @ 2000nM
MELK = MELK (Homo sapiens, UniProt Q14680); assay: biochemical; settings: read-out: %Ctrl @ 2000nM
NEK10 = NEK10 (Homo sapiens, UniProt Q6ZWH5); assay: biochemical; settings: read-out: %Ctrl @ 2000nM
NIK = NIK (Homo sapiens, UniProt Q99558); assay: biochemical; settings: read-out: %Ctrl @ 2000nM
NLK = NLK (Homo sapiens, UniProt Q9UBE8); assay: biochemical; settings: read-out: %Ctrl @ 2000nM
p38-delta = p38-delta (Homo sapiens, UniProt O15264); assay: biochemical; settings: read-out: %Ctrl @ 2000nM
PCTK2 = PCTK2 (Homo sapiens, UniProt Q00537); assay: biochemical; settings: read-out: %Ctrl @ 2000nM
PFCDPK1(P.falciparum) = PFCDPK1(P.falciparum) (Plasmodium falciparum, UniProt P62344); assay: biochemical; settings: read-out: %Ctrl @ 2000nM
PIK3CD = PIK3CD (Homo sapiens, UniProt O00329); assay: biochemical; settings: read-out: %Ctrl @ 2000nM
PKAC-alpha = PKAC-alpha (Homo sapiens, UniProt P17612); assay: biochemical; settings: read-out: %Ctrl @ 2000nM
PKNB(M.tuberculosis) = PKNB(M.tuberculosis) (Mycobacterium tuberculosis, UniProt P9WI81); assay: biochemical; settings: read-out: %Ctrl @ 2000nM
PLK2 = PLK2 (Homo sapiens, UniProt Q9NYY3); assay: biochemical; settings: read-out: %Ctrl @ 2000nM
PRKCI = PRKCI (Homo sapiens, UniProt P41743); assay: biochemical; settings: read-out: %Ctrl @ 2000nM
RET(M918T) = RET(M918T) (Homo sapiens, UniProt P07949, M918T); assay: biochemical; settings: read-out: %Ctrl @ 2000nM
RET(V804M) = RET(V804M) (Homo sapiens, UniProt P07949, V804M); assay: biochemical; settings: read-out: %Ctrl @ 2000nM
SRC = SRC (Homo sapiens, UniProt P12931); assay: biochemical; settings: read-out: %Ctrl @ 2000nM
SRMS = SRMS (Homo sapiens, UniProt Q9H3Y6); assay: biochemical; settings: read-out: %Ctrl @ 2000nM
TBK1 = TBK1 (Homo sapiens, UniProt Q9UHD2); assay: biochemical; settings: read-out: %Ctrl @ 2000nM
TGFBR2 = TGFBR2 (Homo sapiens, UniProt P37173); assay: biochemical; settings: read-out: %Ctrl @ 2000nM
ULK3 = ULK3 (Homo sapiens, UniProt Q6PHR2); assay: biochemical; settings: read-out: %Ctrl @ 2000nM
YSK1 = YSK1 (Homo sapiens, UniProt O00506); assay: biochemical; settings: read-out: %Ctrl @ 2000nM

Chain of TGFBR2 (P37173 23-567): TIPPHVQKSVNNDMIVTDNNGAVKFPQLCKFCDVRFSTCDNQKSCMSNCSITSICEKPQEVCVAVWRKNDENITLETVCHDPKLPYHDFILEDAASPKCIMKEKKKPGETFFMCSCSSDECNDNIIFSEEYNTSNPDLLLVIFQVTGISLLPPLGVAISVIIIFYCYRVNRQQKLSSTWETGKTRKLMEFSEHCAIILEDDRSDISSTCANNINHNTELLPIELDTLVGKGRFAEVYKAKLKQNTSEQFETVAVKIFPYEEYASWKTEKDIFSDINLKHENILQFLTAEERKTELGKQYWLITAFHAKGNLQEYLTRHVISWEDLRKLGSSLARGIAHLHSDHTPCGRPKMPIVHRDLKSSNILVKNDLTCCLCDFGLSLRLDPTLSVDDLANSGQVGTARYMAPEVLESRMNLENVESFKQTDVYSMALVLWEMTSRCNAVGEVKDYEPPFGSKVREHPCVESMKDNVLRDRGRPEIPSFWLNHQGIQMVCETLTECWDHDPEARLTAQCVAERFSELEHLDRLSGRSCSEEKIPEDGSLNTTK
Chain of NLK (Q9UBE8 whole entry): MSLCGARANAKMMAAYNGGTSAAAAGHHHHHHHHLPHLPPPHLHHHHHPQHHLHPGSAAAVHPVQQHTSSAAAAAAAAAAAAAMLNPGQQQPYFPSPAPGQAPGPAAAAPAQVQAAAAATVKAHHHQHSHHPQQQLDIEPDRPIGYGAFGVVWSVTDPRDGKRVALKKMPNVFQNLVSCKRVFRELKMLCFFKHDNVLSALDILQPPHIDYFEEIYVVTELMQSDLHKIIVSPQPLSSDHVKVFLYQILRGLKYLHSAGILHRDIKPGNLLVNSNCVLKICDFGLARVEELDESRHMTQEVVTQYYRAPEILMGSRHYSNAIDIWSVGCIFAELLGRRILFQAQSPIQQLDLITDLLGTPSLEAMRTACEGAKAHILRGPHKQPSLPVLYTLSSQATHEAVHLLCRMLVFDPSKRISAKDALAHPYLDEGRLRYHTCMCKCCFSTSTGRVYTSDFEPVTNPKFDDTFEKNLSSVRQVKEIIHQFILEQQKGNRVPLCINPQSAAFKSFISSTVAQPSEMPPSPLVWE
Chain of RET(M918T) (P07949 29-1114 M918T): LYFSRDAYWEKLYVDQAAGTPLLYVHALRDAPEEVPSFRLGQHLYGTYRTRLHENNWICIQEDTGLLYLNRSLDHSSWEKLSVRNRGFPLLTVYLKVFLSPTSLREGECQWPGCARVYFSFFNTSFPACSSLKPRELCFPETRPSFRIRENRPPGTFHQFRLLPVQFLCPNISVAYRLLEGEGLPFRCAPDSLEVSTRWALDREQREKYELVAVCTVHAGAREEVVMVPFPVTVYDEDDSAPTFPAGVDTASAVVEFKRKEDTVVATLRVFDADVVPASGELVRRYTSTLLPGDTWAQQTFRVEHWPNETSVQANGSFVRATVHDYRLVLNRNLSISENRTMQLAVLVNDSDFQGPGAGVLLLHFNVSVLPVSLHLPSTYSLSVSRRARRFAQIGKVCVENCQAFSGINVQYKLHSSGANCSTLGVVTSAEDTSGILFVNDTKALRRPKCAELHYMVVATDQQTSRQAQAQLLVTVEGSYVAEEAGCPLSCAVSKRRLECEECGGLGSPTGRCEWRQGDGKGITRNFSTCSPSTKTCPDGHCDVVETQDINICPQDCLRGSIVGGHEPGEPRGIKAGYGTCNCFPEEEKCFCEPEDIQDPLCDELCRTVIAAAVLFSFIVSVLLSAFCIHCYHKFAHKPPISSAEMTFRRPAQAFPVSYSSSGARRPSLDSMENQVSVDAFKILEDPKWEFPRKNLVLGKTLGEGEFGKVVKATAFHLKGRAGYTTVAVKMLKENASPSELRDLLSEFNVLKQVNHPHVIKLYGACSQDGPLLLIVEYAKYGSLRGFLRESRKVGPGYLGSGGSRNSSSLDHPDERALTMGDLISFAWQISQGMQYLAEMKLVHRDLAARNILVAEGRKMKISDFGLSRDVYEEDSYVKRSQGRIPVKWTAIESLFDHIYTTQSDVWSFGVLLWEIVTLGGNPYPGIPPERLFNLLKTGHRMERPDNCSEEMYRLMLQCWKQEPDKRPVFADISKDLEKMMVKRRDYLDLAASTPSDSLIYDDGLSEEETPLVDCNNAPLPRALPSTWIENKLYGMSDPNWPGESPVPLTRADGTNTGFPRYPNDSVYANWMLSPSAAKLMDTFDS
Chain of AURKC (Q9UQB9 whole entry): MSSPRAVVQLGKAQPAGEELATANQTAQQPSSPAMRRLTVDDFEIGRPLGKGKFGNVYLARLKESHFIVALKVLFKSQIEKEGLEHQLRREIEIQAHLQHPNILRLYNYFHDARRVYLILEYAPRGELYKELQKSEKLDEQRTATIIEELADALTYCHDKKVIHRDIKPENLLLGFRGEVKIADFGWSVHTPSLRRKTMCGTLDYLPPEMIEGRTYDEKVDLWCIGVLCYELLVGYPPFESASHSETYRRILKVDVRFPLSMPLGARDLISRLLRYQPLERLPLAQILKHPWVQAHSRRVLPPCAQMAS
Chain of ERK2 (P28482 whole entry): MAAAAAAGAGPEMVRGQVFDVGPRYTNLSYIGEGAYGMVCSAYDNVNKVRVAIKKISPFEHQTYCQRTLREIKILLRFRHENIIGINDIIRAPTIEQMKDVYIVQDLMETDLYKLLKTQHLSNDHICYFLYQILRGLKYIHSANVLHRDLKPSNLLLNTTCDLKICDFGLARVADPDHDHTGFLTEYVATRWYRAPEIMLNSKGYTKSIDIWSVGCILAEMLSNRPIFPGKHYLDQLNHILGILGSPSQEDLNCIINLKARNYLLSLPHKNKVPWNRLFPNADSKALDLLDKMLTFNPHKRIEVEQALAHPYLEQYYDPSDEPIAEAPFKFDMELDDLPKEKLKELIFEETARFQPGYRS
Chain of ERK5 (Q13164 whole entry): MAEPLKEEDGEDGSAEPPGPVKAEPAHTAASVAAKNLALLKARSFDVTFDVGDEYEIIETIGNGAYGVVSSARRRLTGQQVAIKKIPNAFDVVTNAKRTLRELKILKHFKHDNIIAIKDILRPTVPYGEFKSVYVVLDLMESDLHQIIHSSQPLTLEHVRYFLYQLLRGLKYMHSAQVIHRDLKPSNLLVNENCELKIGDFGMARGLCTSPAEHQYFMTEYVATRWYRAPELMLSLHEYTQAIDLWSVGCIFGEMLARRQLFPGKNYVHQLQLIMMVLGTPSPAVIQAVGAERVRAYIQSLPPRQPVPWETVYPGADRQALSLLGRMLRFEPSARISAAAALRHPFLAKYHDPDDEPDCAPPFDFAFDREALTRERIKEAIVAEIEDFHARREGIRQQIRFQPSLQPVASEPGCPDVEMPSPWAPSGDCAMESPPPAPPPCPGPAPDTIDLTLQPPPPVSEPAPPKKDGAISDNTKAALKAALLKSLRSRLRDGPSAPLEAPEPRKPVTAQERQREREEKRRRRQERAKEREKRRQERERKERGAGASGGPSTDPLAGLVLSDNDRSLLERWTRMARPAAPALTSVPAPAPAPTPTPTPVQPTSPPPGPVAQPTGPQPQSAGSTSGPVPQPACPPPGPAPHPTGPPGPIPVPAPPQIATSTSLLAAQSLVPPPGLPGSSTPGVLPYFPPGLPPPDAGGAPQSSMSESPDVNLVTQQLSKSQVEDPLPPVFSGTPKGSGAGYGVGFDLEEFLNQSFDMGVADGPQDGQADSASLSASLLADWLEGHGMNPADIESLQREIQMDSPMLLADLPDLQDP
Chain of NEK10 (Q6ZWH5 whole entry): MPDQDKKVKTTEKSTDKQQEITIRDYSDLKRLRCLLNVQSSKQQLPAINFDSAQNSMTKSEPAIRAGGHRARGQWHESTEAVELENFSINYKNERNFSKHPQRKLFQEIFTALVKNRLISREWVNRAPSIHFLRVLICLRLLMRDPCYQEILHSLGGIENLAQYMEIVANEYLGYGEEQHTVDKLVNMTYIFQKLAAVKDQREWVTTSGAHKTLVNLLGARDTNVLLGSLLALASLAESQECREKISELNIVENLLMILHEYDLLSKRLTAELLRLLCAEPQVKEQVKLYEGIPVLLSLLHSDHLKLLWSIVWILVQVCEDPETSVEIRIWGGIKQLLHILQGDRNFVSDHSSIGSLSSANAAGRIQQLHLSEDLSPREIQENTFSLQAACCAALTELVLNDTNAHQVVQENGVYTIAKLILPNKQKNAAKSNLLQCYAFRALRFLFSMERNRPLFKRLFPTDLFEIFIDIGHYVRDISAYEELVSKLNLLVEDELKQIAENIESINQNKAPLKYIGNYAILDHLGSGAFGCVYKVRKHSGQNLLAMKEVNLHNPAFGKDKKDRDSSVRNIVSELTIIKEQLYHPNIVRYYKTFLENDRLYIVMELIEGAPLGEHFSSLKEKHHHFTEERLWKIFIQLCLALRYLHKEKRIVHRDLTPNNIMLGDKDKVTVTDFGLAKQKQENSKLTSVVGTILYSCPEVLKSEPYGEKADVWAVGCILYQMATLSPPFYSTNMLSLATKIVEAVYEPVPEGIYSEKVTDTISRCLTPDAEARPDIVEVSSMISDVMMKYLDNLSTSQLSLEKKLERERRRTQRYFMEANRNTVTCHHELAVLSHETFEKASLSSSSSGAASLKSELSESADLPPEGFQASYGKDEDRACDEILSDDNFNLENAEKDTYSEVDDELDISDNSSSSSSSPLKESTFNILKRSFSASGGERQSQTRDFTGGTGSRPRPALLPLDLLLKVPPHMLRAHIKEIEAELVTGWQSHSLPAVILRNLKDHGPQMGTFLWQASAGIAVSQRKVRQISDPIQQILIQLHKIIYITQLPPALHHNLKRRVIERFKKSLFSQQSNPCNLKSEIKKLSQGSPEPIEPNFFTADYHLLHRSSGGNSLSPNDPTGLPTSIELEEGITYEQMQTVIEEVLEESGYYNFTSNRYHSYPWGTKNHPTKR
Chain of RET(V804M) (P07949 29-1114 V804M): as the sequence (P07949 29-1114 M918T) above, with V776M, T890M counted along it

`CC(C)COC(=O)c1[nH]c2ccc(F)cc2c1-c1cn(CC2CCN(CCNS(=O)(=O)c3ccc(CC(C)C)cc3)CC2)nn1` [AB668, isobutyl 5-fluoro-3-(1-((1-(2-((4-isobutylphenyl)sulfonamido)ethyl)piperidin-4-yl)methyl)-1H-1,2,3-triazol-4-yl)-1H-indole-2-carboxylate] gave an IC50 [1] of over 100 µM, a remaining activity at 2 µM [2] of 86% and a remaining activity at 2 µM (AKT2) of 97%. For the same compound, the remaining activity at 2 µM (AMPK-alpha1) was 99%, the remaining activity at 2 µM (AURKC) was 100% and the remaining activity at 2 µM (BLK) was 100%. For the same compound, the remaining activity at 2 µM (CDK11) was 76%, the remaining activity at 2 µM (CDK4-cyclinD3) was 96% and the remaining activity at 2 µM (CDK5) was 99%. It also gave a remaining activity at 2 µM (CSNK1G3) of 67%, a remaining activity at 2 µM (DAPK1) of 100% and a remaining activity at 2 µM (DDR1) of 96%. The remaining activity at 2 µM (EPHA3) was 86%, the remaining activity at 2 µM (ERK2) was 100% and the remaining activity at 2 µM (ERK5) was 88%. It also gave a remaining activity at 2 µM (FER) of 100%, a remaining activity at 2 µM (FGFR3(G697C)) of 100% and a remaining activity at 2 µM [3] of 73%. For the same compound, the remaining activity at 2 µM (KIT(L576P)) was 91%, the remaining activity at 2 µM (MAP3K3) was 100% and the remaining activity at 2 µM (MAP4K3) was 82%. For the same compound, the remaining activity at 2 µM (MAP4K5) was 96%, the remaining activity at 2 µM (MARK1) was 79% and the remaining activity at 2 µM (MELK) was 100%. It also gave a remaining activity at 2 µM (NEK10) of 80%, a remaining activity at 2 µM (NIK) of 72% and a remaining activity at 2 µM (NLK) of 77%. It also gave a remaining activity at 2 µM (p38-delta) of 96%, a remaining activity at 2 µM (PCTK2) of 96% and a remaining activity at 2 µM (PFCDPK1(P.falciparum)) of 81%. For the same compound, the remaining activity at 2 µM (PIK3CD) was 91%, the remaining activity at 2 µM (PKAC-alpha) was 84% and the remaining activity at 2 µM (PKNB(M.tuberculosis)) was 100%. The remaining activity at 2 µM (PLK2) was 87%, the remaining activity at 2 µM (PRKCI) was 85% and the remaining activity at 2 µM (RET(M918T)) was 94%. It also gave a remaining activity at 2 µM (RET(V804M)) of 76%, a remaining activity at 2 µM (SRC) of 92% and a remaining activity at 2 µM (SRMS) of 93%. The remaining activity at 2 µM (TBK1) was 87%, the remaining activity at 2 µM (TGFBR2) was 90% and the remaining activity at 2 µM (ULK3) was 82%. The remaining activity at 2 µM (YSK1) was 82%.
